Reference: patent publication US7084158B2, “Substituted propargylamines” (Bayer Cropscience S.A., priority 2001, dated 2006)

Experiments:
Format in all cases: in vivo
Design in all cases: key: compounds were considered to be active when, at a concentration of 500 ppm or less, they had an activity on the harmful organisms of 50% or more
[1] = tested on: Heliothis virescens; experiment: Example B: tobacco budworm eggs on filter paper/insect diet, mortality; details: 500 ppm or less; 24-hour-old eggs dipped, diet treated; after 6 days
[2] = tested on: Meloidogyne incognita; experiment: Example H: root gall nematode larvae immobilization (contact activity); details: 500 ppm or less; 2nd stage larvae; 6 days permanent exposure
Description: In a glass vessel, an aqueous solution of the formulated compound to be examined was added to about 3000 freshly hatched active (mobile) larvae (2nd development stage) of the root gall nematode (Meloidogyne incognita) (final volume 20 ml). After 6 days of permanent exposure of the nematode larvae, the percentage of the individual larvae immobilized by the activity of the compound was determined in comparison to the untreated controls (contact activity). The compounds of the following examples were active: 39, 52, 159, 161, 162, 163, 164, 165, 1045, 1046, 1047, 179, 183, 187, 1048, 298, 206, 208, 227, 230, 1061, 237, 238, 245, 250, 255, 256, 260, 268, 269, 274, 275, 288, 290.

[3] = tested on: Spodoptera littoralis; experiment: Example G: treated L2 larvae and insect diet, Egyptian cotton leafworm mortality; details: 500 ppm or less, after 6 days
Description: A Petri dish whose bottom was covered with filter paper and which contained about 5 ml of insect diet is prepared. Five L2 larvae of the Egyptian cotton leafworm (Spodoptera littoralis) were counted into a small beaker. 200 μl of an aqueous solution of the formulated preparation to be examined were pipetted into the beaker. The treated larvae were then poured into the Petri dish, and a further 200 μl of the aqueous solution were distributed over the insect diet. The Petri dish was closed and then stored at about 25° C. in a climatized chamber. After 6 days of storage, the effect of the compound on the larvae was determined (mortality). The compounds of the following examples were active: 29, 70, 60, 159, 1005, 1040, 1042, 1044, 1045, 1046, 1047.

[4] = tested on: Carpocapsa pomonella; experiment: Example D: dipped apples, codling moth L1 larvae mortality; details: 500 ppm or less, after 14 days
Description: Apples were dipped into an aqueous solution of the formulated compound to be examined. The apples were then populated with 10 L1 larvae of the codling moth (Carpocapsa pomonella). After 14 days of storage at about 25° C., the effect of the compound on the larvae was determined (mortality). The compounds of the following examples were active: Nos. 14, 15, 17, 18, 70, 1007, 1008, 1009, 1036, 1038, 197.

[5] = tested on: Diabrotica undecimpunctata; experiment: Example C: corn rootworm eggs with maize corn, mortality; details: 500 ppm or less; 4-5-day-old eggs; after 6 days
[6] = tested on: Spodoptera exigua; experiment: Example S: treated L2 larvae and insect diet, sugar beet army worm mortality; details: 500 ppm or less, after 6 days
Description: A Petri dish whose bottom was covered with filter paper and which contains about 5 ml of insect diet is prepared. Five L2 larvae of sugar beet army worm (Spodoptera exigua) were counted into a small beaker. 200 μl of an aqueous solution of the formulated compound to be examined were pipetted into the beaker. The treated larvae were then poured into the Petri dish and a further 200 μl of the aqueous solution were distributed over the insect diet. The Petri dish was closed and then stored at 25° C. in a climatized chamber. After 6 days of storage, the mortality among the larvae was determined. The following examples were active: 1036, 175, 184, 1051, 1054, 1055, 234, 1057, 1059, 1060, 1063, 243, 245, 251, 257, 259, 266, 1065, 1067, 290, 291.

[7] = tested on: Nilaparvata lugens; experiment: Example A: rice leaf dip, leafhopper larvae mortality; details: 500 ppm or less; L3 larvae on dipped rice plants; after 6 days
Description: The leaves of 12 rice plants having a stem length of 8 cm were dipped for 5 seconds into an aqueous solution of the formulated compound to be examined. After the solution had run off, the rice plants treated in this manner were placed into a Petri dish and populated with about 20 larvae (L3 stage) of the rice leafhopper species Nilaparvata lugens. The Petri dish was closed and then stored in a climatized chamber (16 hours of light/day, 25° C., 40–60% relative atmospheric humidity). After 6 days of storage, the mortality among the leafhopper larvae was determined. The compounds of the following examples were active: Nos. 29, 32, 42, 43, 51, 70, 84, 1002, 1004, 1005, 1040, 180, 184, 193, 197, 203, 209, 1059, 264, 265, 1066.

[8] = tested on: Aedes aegypti; experiment: Example AG: microtiter plate, yellow fever mosquito larvicidal activity; details: 500 ppm or less, after 3 days

Compound	effect on the eggs and hatched larvae (mortality) [1]	percentage of larvae immobilized (contact activity) [2]	other results
Cc1ccc([N+](=O)[O-])cc1-c1ccc(C#CCN2CCC(C)CC2)cc1 [Example 179]	active	active	–
C[C@@H]1C[C@H](C)CN(CC#Cc2cc(C(F)(F)F)cc(C(F)(F)F)c2)C1.Cl [Example 1044]	active	–	effect on the larvae (mortality) [3]: active
CC1CCN(CC#Cc2cc(C(F)(F)F)cc(C(F)(F)F)n2)CC1.CCCCCCCCC(=O)O [Example 1045]	active	active	effect on the larvae (mortality) [3]: active
CSc1nc(C#CCN2CC(C)CC(C)C2)cc(C(F)(F)F)n1 (stereo not drawn) [Example 159]	–	active	effect on the larvae (mortality) [3]: active
CC1CCN(CC#Cc2ccc(Cl)c(Cl)c2Cl)CC1 [Example 15]	active	–	effect on the larvae (mortality) [4]: active
Cc1ccccc1-c1ccc(C#CCN2CCC(C)CC2)cc1 [Example 183]	active	active	–
CC1CCN(CC#Cc2ccc(-c3ccc(F)cc3)s2)CC1 [Example 230]	active	active	–
COc1c(Cl)cc(C#CCN2CCC(C)CC2)cc1Cl [Example 17]	active	–	effect on the eggs and hatched larvae (mortality) [5]: active; effect on the larvae (mortality) [4]: active
CC1CCN(CC#Cc2ccc(-c3ccccc3Cl)s2)CC1 [Example 243]	–	–	mortality among the larvae [6]: active
CC1CCN(CC#Cc2cccc(-c3nccs3)c2)CC1 [Example 227]	–	active	–
Cc1cc(C)cc(-c2ccc(C#CCN3CCC(C)CC3)cc2)c1 [Example 175]	active	–	mortality among the larvae [6]: active
CC1CCN(CC#Cc2ccc(Cl)c(C(F)(F)F)c2)CC1 [Example 14]	active	–	effect on the larvae (mortality) [4]: active
CC1CCN(CC#Cc2cc(C(F)(F)F)cc(C(F)(F)F)n2)CC1.O=C(O)C(F)(F)F [Example 1046]	active	active	effect on the larvae (mortality) [3]: active
Cc1cc(C#CCN2CCC(C)CC2)sc1-c1ccc(-c2ccccc2)cc1 [Example 237]	–	active	–
CC1CCN(CC#Cc2ccc(-c3cccc(Cl)c3Cl)cc2)CC1 [Example 180]	active	–	mortality among the leafhopper larvae [7]: active
CC1CCN(CC#Cc2ccc(C(F)(F)F)cc2)CC1.Cl [Example 1042]	active	–	effect on the eggs and hatched larvae (mortality) [5]: active; effect on the larvae (mortality) [3]: active
Cc1cc(C#CCN2CCC(C)CC2)sc1-c1ccsc1 [Example 238]	–	active	–
CC1CCN(CC#Cc2ccc(Br)c(C(F)(F)F)c2)CC1.O=C(O)/C=C\C(=O)O [Example 1066]	–	–	larvicidal activity [8]: active; effect on the eggs and hatched larvae (mortality) [5]: active; mortality among the leafhopper larvae [7]: active
CC1CCN(CC#Cc2cc(C(F)(F)F)cc(Cl)n2)CC1 [Example 234]	active	–	mortality among the larvae [6]: active; larvicidal activity [8]: active; effect on the eggs and hatched larvae (mortality) [5]: active

Compound	effect on the eggs and hatched larvae (mortality) [1]	percentage of larvae immobilized (contact activity) [2]	other results
Cc1nc(C#CCN2CCC(C)CC2)cc(C(F)(F)F)n1 [Example 161]	–	active	–
CC1CCN(CC#Cc2ccc([N+](=O)[O-])s2)CC1 [Example 208]	–	active	–
CCC1CCCN(CC#Cc2cc(C(F)(F)F)cc(C(F)(F)F)c2)C1 (stereo not drawn) [Example 32]	active	–	effect on the eggs and hatched larvae (mortality) [5]: active; mortality among the leafhopper larvae [7]: active
CCc1ccc(C#CCN2CCC(C)CC2)cc1C(F)(F)F [Example 264]	–	–	larvicidal activity [8]: active; mortality among the leafhopper larvae [7]: active
CN1CCN(CC#Cc2ccc(C(F)(F)F)cc2)CC1 [Example 52]	–	active	–
CC1CCN(CC#Cc2ccc(-c3cccnc3Cl)cc2)CC1 [Example 187]	–	active	–
CC1CCCCN1CC#Cc1cc(C(F)(F)F)cc(C(F)(F)F)c1 (stereo not drawn) [Example 39]	–	active	–
CC1CCN(CC#Cc2ccc(C(F)(F)F)cc2)CC1 [Example 29]	active	–	effect on the larvae (mortality) [3]: active; mortality among the leafhopper larvae [7]: active
CC1CCN(CC#Cc2ccc(C=O)s2)CC1 [Example 298]	–	active	effect on the eggs and hatched larvae (mortality) [5]: active
CC1(C)CCCC(C)(C)N1CC#Cc1ccccc1 [Example 84]	–	–	mortality among the leafhopper larvae [7]: active
CC1CCN(CC#Cc2nc(C(F)(F)F)ccc2C(F)(F)F)CC1 [Example 165]	–	active	–
CC1CCN(CC#Cc2ccc(-c3ccc(Cl)cc3Cl)s2)CC1 [Example 274]	–	active	–
CC1CCN(CC#Cc2cc(C(F)(F)F)ccn2)CC1 [Example 203]	active	–	effect on the eggs and hatched larvae (mortality) [5]: active; mortality among the leafhopper larvae [7]: active
CN1CCN(CC#Cc2cc(C(F)(F)F)cc(C(F)(F)F)c2)CC1 [Example 51]	–	–	mortality among the leafhopper larvae [7]: active
FC(F)(F)c1cc(C#CCN2CCCC3CCCCC32)cc(C(F)(F)F)c1 (stereo not drawn) [Example 42]	–	–	mortality among the leafhopper larvae [7]: active
CC1CCN(CC#Cc2cc(C(F)(F)F)cc(C(F)(F)F)n2)CC1.CCS(=O)(=O)O [Example 1060]	active	–	mortality among the larvae [6]: active; larvicidal activity [8]: active; effect on the eggs and hatched larvae (mortality) [5]: active
CC1CCN(CC#Cc2ccc(C(F)(F)F)c(Cl)n2)CC1.Cl [Example 1048]	active	active	–
CC1CCN(CC#Cc2ccc(-c3ccc(Cl)cc3)s2)CC1 [Example 245]	active	active	mortality among the larvae [6]: active; larvicidal activity [8]: active
CSc1nc(C#CCN2CCCCCC2)cc(C(F)(F)F)n1 [Example 164]	–	active	–
